The values below come from patent publication US5700774A, “Compositions comprising bone morphogenic proteins and truncated parathyroid hormone related peptide, and methods of inducing cartilage by administration of same” (Genetics Institute, Inc., priority 1996, dated 1997).

The experiment has as its system cell lines derived from E13 mouse limb buds. Briefly: Northern analysis of tissue specific mRNA expression in limb bud cell lines. As to conditions: PTHrP1-34 alone, 100 ng/ml, 1, 2, 4 or 8 days. Format: cell-based. The procedure:
PTHrP was tested for its effect on cell lines derived from E13 mouse limb buds either alone or in combination with BMP-2. Cells were grown to confluence in DME medium supplemented with 10% fetal calf serum (FCS). At confluence, cells were transferred to DME medium supplemented with 1% FCS and cultured for 1, 2, 4 or 8 days in the presence of either BMP-2 (100 ng/ml), PTHrP1-34 (100 ng/ml)(Peninsular Laboratories Inc). or a combination of BMP-2 and PTHrP1-34. Northern analysis was used to determine expression of tissue specific mRNAs for cartilage (proteoglycan core protein, collagen type II and decorin), bone (osteocalcin, alkaline phosphatase and collagen type I) and hypertrophic cartilage (collagen type X).

In the case of “PTHrP1-34: truncated peptide which comprises the first 34 amino acids of PTHrP (Peninsular Laboratories Inc)”, the “expression of any of the tissue specific mRNAs (cartilage, bone, hypertrophic cartilage markers)” value is given as “did not induce expression”.
